Measured values from US20110280815A1, “COMPOSITION FOR INHIBITING MELANIN PRODUCTION AND APPLICATION THEREOF” (priority 2010, published 2011).
Read-outs that look alike come from different tables or passages of the source.

How the values were obtained:
tyrosinase = test: Inhibiting tyrosinase (L-Dopa oxidation, dopachrome absorption at 492 nm); assay type: biochemical; details: series diluted sample, 0.1 U tyrosinase, 1 mM L-Dopa, 37° C., compared with blank control group (FIG. 1)
Description: In this example, 90 μL of 0.1 U tyrosinase solution was added in to the wells of a 96-well plate. Then, 50 μL of a series diluted sample was added into the wells as an experimental group or as a blank control group, wherein said sample is MOPS, SB-12(N-Dodecyl-N,N-dimethyl-3-ammonio-1-propanesulfonate), ACES or Tris-HCl, and 0.1 M phosphate buffer and a substance lysis solution were used as blank tests for the experimental group and the blank control group, respectively. Each sample in the experiment was at least triplicated. The test plate was placed at 37° C., 400 rpm for 5 min to mix the contents thereof homogeneously. Then, the test plate was placed into a machine for an absorption examination (492 nm). An average of two detected data was obtained as a background value. The test plate was then taken out, and 60 μL of 1 mM L-Dopa solution was added into each well. […] At this time, an average of two detected data was obtained as a test value.
In example 1, by using the tyrosinase inhibitor of the present invention, tyrosinase was inhibited to prevent melanin production. […] Accordingly, in this example, the absorption of the reaction at 492 nm was detected for examining the production of dopaquinone.
The data in the figure was calculated by the following formula: […]

[1] = tested on: human epidermal melanocyte (HEM); test: Inhibiting melanin in cell line model, human epidermal melanocyte (HEM); assay type: cell-based; details: 200 μg/mL in medium, 72 hours, compared with blank control group (FIG. 5)
Description: (§1) In this example, the tyrosinase inhibitor of the present invention was used to inhibit melanin production in melanocytes. The cell lines used in this example are mouse melanoma (B16-F1; ATCC CRL-6323) and human epidermal melanocyte (HEM). After 72 hours, cells and cell culture medium were collected separately. Then, the collected cells were destroyed by ultrasonic for melanin examination.

B16-F1 cells = test: Inhibiting melanin in cell line model, mouse melanoma B16-F1; assay type: cell-based; details: for inhibition of melanin production of mouse melanoma (microscopic image): 200 μg/ml, cultured 72 hours (FIG. 2); for inhibition at 200 µg/mL: Mus musculus, B16-F1, 200 μg/mL in medium
Description: as §1

[2] = 72 hours (FIG. 3), read-out: ability of inhibiting melanin production of B16-F1 cells
[3] = 72 hours, cell culture medium (FIG. 4), read-out: ability of inhibiting melanin secretion of B16-F1 cells

Row | Structure (SMILES) | inhibition of tyrosinase activity (tyrosinase) | inhibition rate of melanin production of human epidermal melanocyte [1] | inhibition of melanin production of mouse melanoma (microscopic image) (B16-F1 cells) | inhibition at 200 µg/mL (B16-F1 cells; [2]) [%] | inhibition at 200 µg/mL (B16-F1 cells; [3]) [%]
1 | NC(=O)CNCCS(=O)(=O)O [ACES, N-(2-Acetamido)-2-aminoethanesulfonic acid] | significantly inhibit the activity of tyrosinase | inhibition rate was increased | significantly inhibit | 35 | 38.9
2 | O=S(=O)(O)CCCN1CCOCC1 [MOPS, 3-(N-Morpholino) propanesulfonic acid] | significantly inhibit the activity of tyrosinase | inhibition rate was increased | significantly inhibit | 41.7 | 42.3
